Results reported in ChEMBL document CHEMBL6153032, “Discovery of a highly potent, N-terminal domain-targeting degrader of AR-FL/AR-V7 for the treatment of prostate cancer” (Eur J Med Chem, 2025).

Legend:
[1] = biological target: Protein cereblon/Androgen receptor (Homo sapiens, UniProt P10275+Q96SW2); experiment: PROTAC activity at full length Androgen receptor/CRBN in human LNCaP cells assessed as reduction in full length androgen receptor level at 1 uM by Western blot analysis; format: cell-based; details: time <= 4.0 hrs
CWR22R = experiment: Downregulation of UBE2C mRNA level in human 22Rv1 cells incubated for 24 hrs by qRT-PCR analysis; format: functional, cell-based; details: dose 100-500 nM
[2] = Initial plasma concentration in Sprague-Dawley rat 2 mg/kg, iv by LC-MS/MS analysis; format: ADME, organism-based

Chain of Protein cereblon/Androgen receptor (P10275 whole entry, looked up): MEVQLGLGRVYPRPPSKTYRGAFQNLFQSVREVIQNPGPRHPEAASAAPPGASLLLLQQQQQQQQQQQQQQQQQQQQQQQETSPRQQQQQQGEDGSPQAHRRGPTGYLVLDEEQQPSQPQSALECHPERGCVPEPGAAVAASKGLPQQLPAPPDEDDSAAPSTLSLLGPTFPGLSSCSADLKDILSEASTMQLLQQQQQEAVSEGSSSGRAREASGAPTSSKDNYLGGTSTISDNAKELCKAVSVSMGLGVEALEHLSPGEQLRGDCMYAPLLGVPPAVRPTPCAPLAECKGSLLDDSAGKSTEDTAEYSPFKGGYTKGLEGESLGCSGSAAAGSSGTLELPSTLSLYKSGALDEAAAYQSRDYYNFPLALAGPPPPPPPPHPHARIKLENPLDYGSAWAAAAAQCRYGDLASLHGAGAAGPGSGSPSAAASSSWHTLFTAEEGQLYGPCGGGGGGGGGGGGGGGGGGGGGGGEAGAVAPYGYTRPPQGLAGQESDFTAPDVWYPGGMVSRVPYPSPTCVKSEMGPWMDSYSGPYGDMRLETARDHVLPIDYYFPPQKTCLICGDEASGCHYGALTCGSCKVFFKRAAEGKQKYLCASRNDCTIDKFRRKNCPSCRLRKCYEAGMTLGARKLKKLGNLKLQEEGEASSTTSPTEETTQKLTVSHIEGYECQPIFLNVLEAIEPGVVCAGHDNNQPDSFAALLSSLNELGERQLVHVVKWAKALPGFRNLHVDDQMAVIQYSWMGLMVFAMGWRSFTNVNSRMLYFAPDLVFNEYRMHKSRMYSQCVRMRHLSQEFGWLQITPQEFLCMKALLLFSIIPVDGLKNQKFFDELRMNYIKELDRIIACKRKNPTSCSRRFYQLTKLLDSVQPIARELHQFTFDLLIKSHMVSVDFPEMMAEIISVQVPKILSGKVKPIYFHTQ
Chain of Protein cereblon/Androgen receptor (Q96SW2 whole entry, looked up): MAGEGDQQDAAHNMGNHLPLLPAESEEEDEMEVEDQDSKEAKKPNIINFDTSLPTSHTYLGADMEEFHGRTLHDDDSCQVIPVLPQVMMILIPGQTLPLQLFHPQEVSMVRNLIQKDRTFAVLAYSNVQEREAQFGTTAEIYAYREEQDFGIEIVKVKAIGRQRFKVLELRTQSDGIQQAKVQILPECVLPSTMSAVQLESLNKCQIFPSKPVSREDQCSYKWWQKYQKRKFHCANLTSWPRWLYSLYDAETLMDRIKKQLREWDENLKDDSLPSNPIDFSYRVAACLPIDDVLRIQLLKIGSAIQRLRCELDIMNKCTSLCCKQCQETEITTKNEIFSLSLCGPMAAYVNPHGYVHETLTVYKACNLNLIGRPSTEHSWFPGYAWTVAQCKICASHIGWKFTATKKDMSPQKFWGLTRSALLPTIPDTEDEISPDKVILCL

- Activity [1]: Dose-dependent-effect
- C0 [2]: 13900 ng/mL
SMILES: CC(C)(c1ccc(OCCNc2cccc3c2C(=O)N(C2CCC(=O)NC2=O)C3=O)cc1)c1ccc(OCc2cccc(N3CCOCC3)n2)cc1 (stereo not drawn)
- Activity (CWR22R): Dose-dependent-effect
